Laboratory results taken from patent publication US9895344B2, “Treating various disorders with 7,8-dihydroxyflavone and derivatives thereof” (EMORY UNIVERSITY, priority 2008, dated 2018).

Columns and labels:
caspase-3 activation = test: Active caspase-3 ELISA in glutamate-treated cortical neurons; assay type: cell-based, rat; details: 50 nM or higher concentrations, 50 μM glutamate for 16 hours, FIG. 29
Method: To quantitatively compare the anti-apoptotic activity of 7,8-DHF and 4′-DMA-7,8-DHF, cortical neurons were prepared from E16 rat embryonic cells and pretreated with various indicated concentrations of 4′-DMA-7,8-DHF and 7,8-DHF for 30 min, followed by 50 μM glutamate for 16 hours. The cell lysates were quantitatively analyzed with an active caspse-3 ELISA.

TrkB [1] = target: T1, TrkB (Rattus norvegicus, UniProt Q63604); test: Immunofluorescent staining of hippocampal neurons with anti-phospho TrkB antibody; assay type: cell-based; set-up: endogenous in cells; host or cells: primary hippocampal neurons; details: 1 μM, 30 minutes, FIG. 8
Method: Primary hippocampal neurons were seeded on poly-L lysine coated coverslips in a 12-well plate. After 7 days in vitro, the neurons were treated with 100 ng/ml BDNF or variety of flavone compounds (1 μM) for 30 minutes, and then washed with PBS. Cells were fixed with 3% formaldehyde in PBS at room temperature for 10 minutes. The cells were then permeabilized and blocked by 0.4% Triton X-100 and 2% FBS in PBS at room temperature for 15 minutes, washed with PBS three times and treated with anti-MAP2 (1:200) and anti-phospho-TrkB antibodies (1:500). After staining with FITC- or Rhodamine-conjugated secondary antibody, the coverslips were mounted on slides. Fluorescent images were taken by OLYMPUS IX71 fluorescence microscope (Olympus; Center Valley, Pa.).
BDNF binding to TrkB induces its autophosphorylation and, subsequently, activation of downstream kinase pathways including MAPK and PI3/Akt. To explore whether 7,8-dihydroxyflavone triggers TrkB activation, immunofluorescent staining on hippocampal neurons with anti-phospho TrkB antibody was conducted.
Target sequence in this assay (Q63604 32-821): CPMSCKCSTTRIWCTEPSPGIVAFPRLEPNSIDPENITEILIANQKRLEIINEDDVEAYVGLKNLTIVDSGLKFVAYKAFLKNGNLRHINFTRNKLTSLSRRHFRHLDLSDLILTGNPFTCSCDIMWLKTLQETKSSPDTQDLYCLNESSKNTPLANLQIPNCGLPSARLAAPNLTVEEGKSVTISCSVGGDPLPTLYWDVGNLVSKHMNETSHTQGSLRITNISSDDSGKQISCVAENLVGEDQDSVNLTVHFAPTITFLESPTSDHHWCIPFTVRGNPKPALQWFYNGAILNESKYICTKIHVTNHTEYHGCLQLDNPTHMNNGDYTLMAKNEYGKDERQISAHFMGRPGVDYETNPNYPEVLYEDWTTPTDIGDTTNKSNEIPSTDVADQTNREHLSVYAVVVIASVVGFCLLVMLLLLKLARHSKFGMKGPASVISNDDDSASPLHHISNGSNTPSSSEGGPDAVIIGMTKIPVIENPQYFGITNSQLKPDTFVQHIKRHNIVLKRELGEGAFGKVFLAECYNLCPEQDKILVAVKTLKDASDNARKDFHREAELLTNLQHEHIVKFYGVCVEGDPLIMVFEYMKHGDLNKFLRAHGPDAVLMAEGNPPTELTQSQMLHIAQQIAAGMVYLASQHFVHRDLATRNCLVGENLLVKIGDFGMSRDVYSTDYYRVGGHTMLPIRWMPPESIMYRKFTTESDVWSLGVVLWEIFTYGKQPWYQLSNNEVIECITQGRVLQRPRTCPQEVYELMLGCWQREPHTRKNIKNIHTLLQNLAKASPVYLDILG

TrkB [2] = target: T2, TrkB (Mus musculus, UniProt P15209); test: Trk activation in cortical neurons from wild-type and TrkB-null pups: TrkB; assay type: cell-based, mice; details: wild-type but not TrkB-null neurons, FIG. 21
T2 construct: from tissue; host or cells: mouse brain
T2 sequence (P15209 32-821): as the sequence (Q63604 32-821) above, with M3T, T9S, T10A, I32V, K63R, G84S, T153M, I185L, T394S, N770S counted along it
Method: To determine whether 7,8-dihydroxyflavone can selectively activate TrkB receptor and prevent neuronal cell death, cortical neurons were prepared from homozygous pups of TrkB+/−mice, which were mated to the same genotype. […] Glutamate nonselectively elicited weak TrkA phosphorylation in both wild-type and TrkB-null neurons (FIG. 21, row 3).

TrkB [3] = target: T1, TrkB; test: TrkB receptor dimerization in cotransfected HEK293 cells (GST pull-down); assay type: cell-based; set-up: expressed in transfected cells; host or cells: HEK293
Method: BDNF is known to bind the TrkB receptor and provoke its dimerization (Barbacid, J. Neurobiol., 25:1386-1403, 1994; Klein et al, Cell, 66:395-403, 1991). To explore whether 7,8-dihydroxyflavone triggers TrkB receptor dimerization, HEK293 cells were cotransfected with GST-TrkB and HA-TrkB or HA-TrkA. The cells were then treated with BDNF or small flavone compounds (0.5 μM) for 30 minutes. The cells were harvested, washed once in PBS, and lysed in 1 ml lysis buffer (50 mM Tris, ph 7.4, 150 mM NaCl, 1 mM EDTA, 0.5% Triton X-100, 1.5 mM Na3VO4, 50 mM NaF, 10 mM sodium pyrophosphate, 10 mM sodium β-glycerophosphate, 1 mM phenylmethylsulfonyl fluoride (PMSF), 5 mg/ml aprotinin, 1 mg/ml leupeptin, 1 mg/ml pepstatin A) and centrifuged for 10 minutes at 14,000×g at 4° C. The supernatant was transferred to a fresh tube and transfected TrkB receptor was separated from the supernatant with glutathione beads, and the coprecipitated proteins were resolved on SDS-PAGE.
Target sequence in this assay (Q63604 32-821): as the sequence (Q63604 32-821) above
Target sequence in this assay (Q63604 32-821): as above

TrkA [4] = target: T3, TrkA (Mus musculus, UniProt Q3UFB7); test: Immunoblotting of brain lysates from forced swim test mice: TrkA; assay type: in vivo; set-up: from tissue; host or cells: mouse brain; details: 5 mg/kg, 21 days oral, anti-p-TrkA 794, FIG. 35
T3 sequence (Q3UFB7 34-799): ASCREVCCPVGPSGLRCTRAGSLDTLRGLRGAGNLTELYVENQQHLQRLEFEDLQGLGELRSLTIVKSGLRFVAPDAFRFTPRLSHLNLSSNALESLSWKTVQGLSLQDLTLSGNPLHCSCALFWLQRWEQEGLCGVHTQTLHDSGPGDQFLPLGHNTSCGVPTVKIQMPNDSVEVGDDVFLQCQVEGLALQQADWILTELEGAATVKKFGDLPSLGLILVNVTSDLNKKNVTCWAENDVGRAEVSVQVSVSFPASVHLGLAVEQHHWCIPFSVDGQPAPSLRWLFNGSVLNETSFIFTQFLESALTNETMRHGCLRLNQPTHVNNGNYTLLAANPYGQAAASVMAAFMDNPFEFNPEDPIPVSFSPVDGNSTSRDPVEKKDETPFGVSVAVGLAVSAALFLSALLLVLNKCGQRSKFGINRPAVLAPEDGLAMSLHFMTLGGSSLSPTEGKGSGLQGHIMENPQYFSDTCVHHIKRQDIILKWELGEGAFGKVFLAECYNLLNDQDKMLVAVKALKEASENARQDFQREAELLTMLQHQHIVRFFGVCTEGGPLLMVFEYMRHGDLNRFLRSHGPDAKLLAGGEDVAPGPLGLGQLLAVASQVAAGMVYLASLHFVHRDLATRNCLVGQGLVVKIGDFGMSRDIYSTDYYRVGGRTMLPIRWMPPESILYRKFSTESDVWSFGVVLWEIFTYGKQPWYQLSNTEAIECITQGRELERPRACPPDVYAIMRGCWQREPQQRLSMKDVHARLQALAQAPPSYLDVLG
Method: To explore whether 4′-DMA-7,8-DHF and 7,8-DHF have any antidepressant effect, a forced swim test (6 minutes, immobility recorded in the last 4 minutes) was conducted after chronic treatment of male C57BL/6J mice (8 mice/group) for 21 days via oral injection.

TrkA [5] = target: T3, TrkA; test: TrkA phosphorylation in mouse brain after intraperitoneal injection; assay type: in vivo, mice; set-up: from tissue; host or cells: mouse brain; details: 5 mg/kg intraperitoneally, 2 hours after injection, FIG. 12
Method: To assess whether 7,8-dihydroxyflavone can provoke TrkB activation in the brain, mice were intraperitoneally injected with a dose of 5 mg/kg and analyzed at various time points. […] Further, as shown in FIG. 12 (right panel), the protein and mRNA levels of the neurotrophic receptors were not altered after treatment with 7,8-dihydroxyflavone.

TrkB [6] = target: T1, TrkB; test: TrkB activation in primary cortical neurons (p-TrkB Y817 immunoblotting); assay type: cell-based; set-up: endogenous in cells; host or cells: primary cortical neurons; details: FIG. 27 right
Method: Primary cultured rat cortical neurons were prepared as follows. E17 rat pups were decapitated and cortex was extirpated, cross chopped, and suspended by pipetting for separation in 5% fetal calf serum (FCS), 5% horse serum (HS) DMEM. The cell suspension was then centrifuged at 250×g for 5 minutes. This operation was repeated again. Cells were seeded into polyethyleneimine-coated 10 cm^2 dishes and 12-well plates including coated-coverslips and incubated at 37° C. in 5% CO2/95% air. After 3 hours, the culture medium was changed to Neurobasal containing B-27 supplement (Invitrogen; Carlsbad, Calif.) and incubated for 4 days. For maintenance, half of the culture medium was changed to fresh Neurobasal/B27 every 4 days. After 1 week, the dished cultured neurons were ready for use.
To compare the TrkB activation by the synthetic compounds of Examples 9 and 10 (see FIG. 26), primary cortical cultures were prepared. The cortical neurons were treated with 500 nM of various compounds for 30 min and collected the cell lysates. […] Replacing the H-bond acceptor O atom with hydrogen bond donor NH reduced its stimulatory effect. […] In comparison, 7,8-DHF provoked TrkB activation with the minimal concentration of 100 nM (FIG. 27, right panels).
Target sequence in this assay (Q63604 32-821): as the sequence (Q63604 32-821) above

TrkB [7] = target: T2, TrkB; test: Trk activation in wild-type and TrkC knockout cortical neurons: TrkB; assay type: cell-based, mice; details: FIG. 22
Method: To further assess whether 7,8-dihydroxyflavone blocks neuronal apoptosis in a TrkB dependent manner, cortical neurons were prepared from homozygous pups of TrkC+/−mice, which were mated to the same genotype. […] Glutamate weakly stimulated both TrkA and TrkB faint phosphorylation regardless of TrkC genotype (FIG. 22, rows 1 and 3). The spontaneous caspase-3 activation in TrkC−/− neurons was suppressed by 7,8-dihydroxyflavone (FIG. 22, row 5).

O=c1cc(-c2ccccc2)oc2c(O)c(O)ccc12 [7,8-dihydroxyflavone]
Glutamate-provoked caspase-3 activation (caspase-3 activation): substantially blocked | TrkB tyrosine phosphorylation (immunofluorescence) (TrkB [1]): provoked TrkB tyrosine phosphorylation similar to BDNF | TrkB activation in wild-type neurons (TrkB [2]): specifically activates TrkB | dimerization of TrkB with TrkA receptor (TrkB [3]; GST-TrkB and HA-TrkA cotransfected): failed to dimerize with TrkA receptor | TrkB dimerization (TrkB [3]; GST-TrkB and HA-TrkB, 0.5 μM, 30 minutes, FIG. 14): provoked TrkB dimerization to a similar manner as BDNF | TrkA activation in mouse brain (TrkA [4]): not TrkA activation | TrkA phosphorylation in the brain (TrkA [5]): not TrkA | minimal concentration triggering TrkB activation (titration assay) (TrkB [6]): 100 nM | TrkB activation in wild-type and TrkC knockout neurons (TrkB [7]): provoked TrkB
